Assay results reported in patent US20160242450A1, “Functional-gel Compositions and Methods” (priority 2014, published 2016).

Assay: Energy intake and weight loss rodent study, preloads before high fat diet (Experiment 2)
Assay type: in vivo
Details: mice on high fat diet, daily preload one hour before diet
Description: Fifteen adult female feeder mice were preconditioned for 15 days on a […]. PicoLab Rodent diet 20 was supplemented to […] by adding a mixture of fats consisting of (38% butter, 30% shortening, 23% lard, and 8% canola oil). High fat diet was provided ad libitum. After the pre-conditioning period mice were assigned to one of four groups ([…]) to generate similar mean body weights between groups as described below. Mice were given control or test article preloads one hour prior to receiving ad libitum high fat diet on a daily basis, mice received high fat diet at ad libitum over night (rodent active period of the day) and were fasted during day time hours (the rodent dormant period of the day). Body weights were obtained on Day 15 and Day 30 post treatment initiation and data was used to calculate change in body weight from baseline, Day 0. Mean body weights (FIG. 1) and % change in body weight (FIG. 2) data is provided with corresponding SEM. Partially hydrolyzed collagen (GEL group) test article was hydrated in 10× in hot water then allowed to set to firm gel 4-8° C. overnight. Wheat Flour (FLOU group) and Psyllium (PSY group) test articles were hydrated in water. Wheat Flour was cooked via microwave for 2 min at an 800 Watt setting.

CCCCCCCCCCC[C@@H](C[C@@H]1OC(=O)[C@H]1CCCCCC)OC(=O)[C@H](CC(C)C)NC=O [ALLI, Orlistat]
Body weight change over a 30 day treatment period (FIG. 1, FIG. 2): weight loss
